For nine compounds, EC50 and Emax results are on record in patent US9834542B2, “LXR modulators” (BRISTOL-MYERS SQUIBB COMPANY, priority 2013, dated 2017).

For this assay, the target named is T1, LXRβ (Homo sapiens, UniProt P55055).
T1 construct: Co-transfection expression plasmids, comprising full-length LXRα (pCMX-h LXRα[…] or LXRβ (pCMX-hLXRβ)); expressed in transfected cells; host or cells: CV-1 African Green Monkey Kidney Cells
T1 sequence (P55055 1-460): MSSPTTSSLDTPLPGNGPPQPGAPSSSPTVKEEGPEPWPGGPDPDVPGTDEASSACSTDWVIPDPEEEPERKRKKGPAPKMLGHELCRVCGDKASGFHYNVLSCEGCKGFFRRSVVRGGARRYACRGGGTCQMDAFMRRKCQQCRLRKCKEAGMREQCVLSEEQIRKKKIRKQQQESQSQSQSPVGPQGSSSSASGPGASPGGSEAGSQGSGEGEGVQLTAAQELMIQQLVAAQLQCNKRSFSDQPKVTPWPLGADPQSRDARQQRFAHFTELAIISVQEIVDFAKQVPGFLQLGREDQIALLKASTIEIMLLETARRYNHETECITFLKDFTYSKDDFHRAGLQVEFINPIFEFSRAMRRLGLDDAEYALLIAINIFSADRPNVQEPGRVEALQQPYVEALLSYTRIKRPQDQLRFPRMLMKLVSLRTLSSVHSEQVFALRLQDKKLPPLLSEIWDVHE
T1 sequence (P19793 1-462 partner): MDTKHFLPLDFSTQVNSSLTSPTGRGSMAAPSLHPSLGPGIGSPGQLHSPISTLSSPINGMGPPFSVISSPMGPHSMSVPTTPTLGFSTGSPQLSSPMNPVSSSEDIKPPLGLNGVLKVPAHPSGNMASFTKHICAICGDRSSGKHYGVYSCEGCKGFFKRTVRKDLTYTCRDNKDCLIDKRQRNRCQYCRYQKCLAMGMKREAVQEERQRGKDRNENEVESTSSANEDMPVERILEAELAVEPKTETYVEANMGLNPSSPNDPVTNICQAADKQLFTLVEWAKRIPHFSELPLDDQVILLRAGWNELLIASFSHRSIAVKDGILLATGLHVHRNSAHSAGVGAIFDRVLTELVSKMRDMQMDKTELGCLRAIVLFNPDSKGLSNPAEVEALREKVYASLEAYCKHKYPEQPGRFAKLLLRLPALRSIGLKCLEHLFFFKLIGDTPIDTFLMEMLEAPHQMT
Kind of assay: Co-transfection assay (LXRE luciferase reporter), LXRβ. Type of assay: cell-based. As to conditions: for EC50: CV-1 cells transfected with pCMX-hLXRβ and LXREx1-Tk-Luciferase, 20 hours incubation; for Emax: LXRβ co-transfection, relative to high control 1-(2,4-difluorobenzyl)-2-oxo-6-(4-phenoxyphenyl)-4-(trifluoromethyl)-1,2-dihydropyridine-3-carbonitrile, read-out: % Efficacy. An outline of the steps:
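CV-1 / pCMX-hLXRβ + LXREx1-Tk-Luc + β-gal; cpd 20 h, 37 °C, ≤0.5% DMSO; Steady-Glo luminescence. 11-pt ½-log curves, duplicate wells, sigmoidal fit → EC50; % efficacy vs high-control agonist, DMSO low control; mean of ≥2 expts.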
On the technique in general: In a reporter assay the amount or activity of a reporter protein is the signal.

What is called EC50 is the concentration needed to bring the measured effect to its halfway point. A lower EC50 goes with an effect from little substance.

For the compound `Cc1nc(-c2cc(-c3cc(F)c(CO)c(S(C)(=O)=O)c3)ccc2-n2cc(Cl)nc2C)c(-c2ccc(OC(F)F)c(F)c2)o1` [Example 467, (4′-(4-chloro-2-methyl-1H-imidazol-1-yl)-3′-(5-(4-(difluoromethoxy)-3-fluorophenyl)-2-methyloxazol-4-yl)-3-fluoro-5-(methylsulfonyl)biphenyl-4-yl)methanol], the EC50 was 66 nM and the Emax was 65%.

On to `Cc1cc(-c2oc(C)nc2-c2cc(-c3cccc(S(C)(=O)=O)c3)ccc2-n2cc(Cl)nc2C)cc(Cl)n1` [Example 468, 4-(4-(4-chloro-2-methyl-1H-imidazol-1-yl)-3′-(methylsulfonyl)biphenyl-3-yl)-5-(2-chloro-6-methylpyridin-4-yl)-2-methyloxazole], for which a half-maximal response (EC50) required 442 nM and the Emax stood at 47%.

For the compound `Cc1nc(-c2cc(-c3ccc(CO)c(S(C)(=O)=O)c3)ccc2-n2cc(C(F)(F)F)nc2C)c(-c2cc(F)c(OC(F)F)c(F)c2)o1` [Example 469, (3′-(5-(4-(difluoromethoxy)-3,5-difluorophenyl)-2-methyloxazol-4-yl)-4′-(2-methyl-4-(trifluoromethyl)-1H-imidazol-1-yl)-3-(methylsulfonyl)biphenyl-4-yl)methanol], the concentration giving a half-maximal response (EC50) stood at 89 nM and the Emax worked out at 70%.

As to `Cc1nc(-c2cc(-c3ccc(C)c(S(C)(=O)=O)c3)ccc2-n2cc(C(F)(F)F)nc2C)c(-c2cc(F)c(OC(F)F)c(F)c2)o1` [Example 470, 5-(4-(difluoromethoxy)-3,5-difluorophenyl)-2-methyl-4-(4′-methyl-4-(2-methyl-4-(trifluoromethyl)-1H-imidazol-1-yl)-3′-(methylsulfonyl)biphenyl-3-yl)oxazole], the 50% effective concentration (EC50) amounted to 109 nM and the Emax is 56%.

For `CCOc1ncc(-c2oc(C)nc2-c2cc(-c3cccc(S(C)(=O)=O)c3)ccc2-n2cc(C(F)(F)F)nc2C)cc1F` [Example 471, 5-(6-ethoxy-5-fluoropyridin-3-yl)-2-methyl-4-(4-(2-methyl-4-(trifluoromethyl)-1H-imidazol-1-yl)-3′-(methylsulfonyl)biphenyl-3-yl)oxazole], a half-maximal effect (EC50) was put at 201 nM and the Emax turned out to be 45%.

Regarding `CCOc1ncc(-c2oc(C)nc2-c2cc(-c3cc(F)c(CO)c(S(C)(=O)=O)c3)ccc2-n2cc(C(F)(F)F)nc2C)cc1F` [Example 472, (3′-(5-(6-ethoxy-5-fluoropyridin-3-yl)-2-methyloxazol-4-yl)-3-fluoro-4′-(2-methyl-4-(trifluoromethyl)-1H-imidazol-1-yl)-5-(methylsulfonyl)biphenyl-4-yl)methanol], it took 199 nM to reach a half-maximal effect (EC50) and the Emax stood at 50%.

Take `CCOc1ncc(-c2oc(C)nc2-c2cc(-c3ccc(C)c(S(C)(=O)=O)c3)ccc2-n2cc(C(F)(F)F)nc2C)cc1F` [Example 473, 5-(6-ethoxy-5-fluoropyridn-3-yl)-2-methyl-4-(4′-methyl-4-(2-methyl-4-(trifluoromethyl)-1H-imidazol-1-yl)-3′-(methylsulfonyl)biphenyl-3-yl)oxazole]: the concentration for a half-maximal effect (EC50) amounted to 280 nM and the Emax came out at 50%.

`Cc1nc(-c2cc(-c3cccc(S(C)(=O)=O)c3)ccc2-n2cc(C(F)(F)F)nc2C)c(-c2ccc3c(c2)CCC3)o1` [Example 474, 5-(2,3-dihydro-1H-inden-5-yl)-2-methyl-4-(4-(2-methyl-4-(trifluoromethyl)-1H-imidazol-1-yl)-3′-(methylsulfonyl)biphenyl-3-yl)oxazole]: the EC50 worked out at 119 nM and the Emax is 53%.

On to `Cc1nc(-c2cc(-c3cc(F)c(CO)c(S(C)(=O)=O)c3)ccc2-n2cc(C(F)(F)F)nc2C)c(-c2ccc3c(c2)CCC3)o1` [Example 475, (3′-(5-(2,3-dihydro-1H-inden-5-yl)-2-methyloxazol-4-yl)-3-fluoro-4′-(2-methyl-4-(trifluoromethyl)-1H-imidazol-1-yl)-5-(methylsulfonyl)biphenyl-4-yl)methanol], for which a half-maximal effect (EC50) was put at 69 nM and the Emax is 56%.
